In paper PMC7763263, “Parameters for Irreversible Inactivation of Monoamine Oxidase” (Molecules, 2020):
Read-outs that look alike come from different tables or passages of the source. Marks after values point to notes of the source that are not given here.

How the values were obtained:
MAO-A [1] = target: T1, MAO-A (Homo sapiens, UniProt P21397); test: IC50 after 30 min preincubation, coupled assay with saturating substrate; assay type: biochemical; design: purchased Sigma-Aldrich (Dorset, UK); host or cells: insect cells (membranes); conditions: ratio of IC50 without/with 30 min preincubation
T1 sequence (P21397 1-527): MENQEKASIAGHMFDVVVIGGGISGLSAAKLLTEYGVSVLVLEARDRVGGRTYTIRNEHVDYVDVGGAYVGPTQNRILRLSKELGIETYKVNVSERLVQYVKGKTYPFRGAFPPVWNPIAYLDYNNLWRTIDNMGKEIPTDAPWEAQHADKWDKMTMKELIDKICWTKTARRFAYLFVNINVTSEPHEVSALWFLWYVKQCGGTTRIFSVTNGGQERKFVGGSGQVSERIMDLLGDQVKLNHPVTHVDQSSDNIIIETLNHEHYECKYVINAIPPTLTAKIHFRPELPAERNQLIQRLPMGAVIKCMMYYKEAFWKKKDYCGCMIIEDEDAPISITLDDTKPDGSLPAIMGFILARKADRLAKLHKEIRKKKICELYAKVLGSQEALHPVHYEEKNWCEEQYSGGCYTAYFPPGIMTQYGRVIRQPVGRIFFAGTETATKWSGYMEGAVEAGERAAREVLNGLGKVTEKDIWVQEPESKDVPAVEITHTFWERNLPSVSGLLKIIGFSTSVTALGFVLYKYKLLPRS
Procedure: (§1) The IC50 determined after a fixed incubation time has become a routine way to compare inhibition by new inactivators, although both binding and the rate of inactivator oxidation influence the measurement.
(§2) The direct spectrophotometric assay using purified MAO-A (30–50 nM) was added last to a 1 mL final volume of 50 mM potassium phosphate pH 7.5 containing inhibitor (0–100 μM) and 0.3 mM kynuramine (equivalent to 2× KM). The increase in absorbance was followed at 314 nm in a Shimadzu UV-2101 spectrophotometer. The coupled assay in black 96-well plates (Eppendorf UK Ltd., Stevenage, UK) used tyramine, Ampliflu™ Red (AR), horseradish peroxidase (HRP) and membrane-bound human MAO-A and MAO-B purchased from Sigma-Aldrich (Dorset, UK). Final concentrations were 50 μM AR, 1 U/mL HRP, and 1 nM enzyme. The substrate was tyramine either at 2× KM (0.8 mM for MAO-A or 0.32 mM for MAO-B) for reversible binding or at 1 mM to assess remaining active MAO after incubation with the inactivators.

human MAO-B [2] = target: T2, human MAO-B (Homo sapiens, UniProt P27338); assay type: biochemical
T2 construct: purchased Sigma-Aldrich (Dorset, UK); host or cells: insect cells (membranes)
T2 sequence (P27338 1-520): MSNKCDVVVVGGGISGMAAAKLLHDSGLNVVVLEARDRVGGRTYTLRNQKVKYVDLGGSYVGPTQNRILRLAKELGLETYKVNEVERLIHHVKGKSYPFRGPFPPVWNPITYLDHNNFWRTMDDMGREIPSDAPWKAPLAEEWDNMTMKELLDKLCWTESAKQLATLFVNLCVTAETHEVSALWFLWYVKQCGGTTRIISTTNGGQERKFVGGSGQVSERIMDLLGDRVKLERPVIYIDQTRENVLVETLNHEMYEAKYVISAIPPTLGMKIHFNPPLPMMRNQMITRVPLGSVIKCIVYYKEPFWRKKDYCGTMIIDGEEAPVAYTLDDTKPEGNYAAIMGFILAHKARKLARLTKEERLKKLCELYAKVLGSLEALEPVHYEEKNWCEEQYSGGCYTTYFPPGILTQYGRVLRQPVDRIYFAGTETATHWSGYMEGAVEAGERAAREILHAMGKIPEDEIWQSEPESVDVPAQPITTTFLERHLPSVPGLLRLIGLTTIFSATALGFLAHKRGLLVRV
Procedure: as §1, §2

purified human MAO-A = target: T3, purified human MAO-A (Homo sapiens, UniProt P21397); test: Anaerobic spectral kinetics of flavin reduction and adduct formation (stopped-flow / timed spectra); assay type: biochemical; conditions: for rate of adduct formation (absorbance increase at 410 nm) / rate of anaerobic reduction of FAD (absorbance decrease at 495 nm): purified MAO-A
T3 construct: made in house; host or cells: Saccharomyces cerevisiae
T3 sequence (P21397 1-527): T1 sequence (P21397 1-527)
Procedure: Purified human MAO-A was dialyzed against 50 mM HEPES pH 7.5 for 1 h and concentrated to at least 40 μM before loading into the rapid-mixing device syringes. MAO-A (40 μM) was mixed with an equal volume of 50 mM HEPES pH 7.5 containing excess inactivating compound in the stopped-flow spectrophotometer (Applied Photophysics SX20) at 30 °C. For anaerobic experiments, the system was flushed with 10 mM dithionite before rinsing well with buffer containing 30 mM glucose, 1 U/mL glucose oxidase, and 24 U/mL catalase. Both the MAO-A and the compound to be added were flushed with argon before the addition of 30 mM glucose, 1 U/mL glucose oxidase, and 24 U/mL catalase to ensure anaerobiosis during the experiment. Absorbance changes were measured in triplicate at three wavelengths (410, 456, and 495 nm). The absorbance acquisition rate was set at 1000 Hz for the interval 0–0.5 s and 4 Hz for the interval 0.5–1000 s. The absorbance changes were analyzed using single or double exponential fits in the built-in software as appropriate.
Figure 7 Time courses for absorbance changes in MAO-A incubated anaerobically with propargylamine inactivators.

MAO = conditions: cited from earlier work
[3] = design: method as in PMID 16848670; conditions: depression; cited from earlier work
MAO-A [4] = target: T1, MAO-A; design: purchased Sigma-Aldrich (Dorset, UK); host or cells: insect cells (membranes); conditions: ratio of IC50 without/with 30 min preincubation; ref Malcomson et al. [40]; cited from earlier work
human MAO-B [5] = target: T2, human MAO-B; conditions: ratio of IC50 without/with 30 min preincubation; ref Malcomson et al. [40]; cited from earlier work
MAO-A [6] = target: T1, MAO-A; test: Partition ratio by long-term incubation; assay type: biochemical; design: made in house; host or cells: Saccharomyces cerevisiae; conditions: incubation at 30 °C up to 10 days
human MAO-B [7] = target: T2, human MAO-B; conditions: cited from earlier work
MAO-A [8] = target: T1, MAO-A; design: purchased Sigma-Aldrich (Dorset, UK); host or cells: insect cells (membranes); method as in PMID 27977122; conditions: cited from earlier work
MAO-A [9] = target: T1, MAO-A; test: Activity remaining or recovered after anaerobic incubation with inactivator; assay type: biochemical; design: made in house; host or cells: Saccharomyces cerevisiae
Description: MAO-A was made anaerobic by cycling with vacuum and argon. […] After the admission of oxygen to the cuvette, the 420 nm absorbance increased rapidly, accompanied by loss of activity.
In order to find a cause for the 600 nm absorbance, we considered whether oxidation could occur at either carbon adjacent to the amine nitrogen in MAO-A. (MAO-B is inactivated by F2MPA [19], so presumably, the normal allenyl imine product is formed by oxidation at the carbon between the amine and the propargyl group, CαP.) The alternative furfuryl imine product that would result from oxidation at the carbon on the other side of the amine nitrogen (between the amine and the furan ring, CαF) is shown in Scheme 2. Chemical analysis was attempted to detect the putative products of oxidation and molecular modeling to explore the interactions of F2MPA with MAO-A and MAO-B.

MAO-A [10] = target: T1, MAO-A; conditions: read-out: MAO-A Ki Direct; ref Esteban et al. [18]; cited from earlier work
MAO-A [11] = target: T1, MAO-A; conditions: read-out: MAO-A IC50 AR Assay; without preincubation, tyramine 2× KM (0.8 mM); mean ± SD of 2–4 experiments
Procedure: (§3) The binding of these mechanism-based inhibitors can be assessed by measuring the inhibition without preincubation, adding the enzyme last to the assay mixture with both substrate and inhibitor. […] The IC50 is not an absolute parameter, but rather is a comparative measure that depends on the type of inhibition and the substrate concentration.
as §2
(§4) Ki values were calculated using the global Michaelis–Menten analysis in PRISM from initial rate data for 6 substrate concentrations (tyramine) at 5 inhibitor concentrations.

human MAO-B [12] = target: T2, human MAO-B; test: Time-dependent inactivation, Kitz-Wilson analysis; assay type: biochemical; conditions: inactivation constant
Procedure: (§5) Rates (as relative fluorescence units per second, rfu/s) were analyzed as the log of the fractional activity remaining compared to control against time to obtain kobs.

human MAO-B [13] = target: T2, human MAO-B; assay type: biochemical; conditions: without preincubation, tyramine 2× KM (0.32 mM); mean ± SD of 2–4 experiments; read-out: MAO-B IC50 AR Assay
Procedure: as §3, §2, §4

MAO-A [14] = target: T1, MAO-A; test: Time-dependent inactivation, Kitz-Wilson analysis; assay type: biochemical; design: purchased Sigma-Aldrich (Dorset, UK); host or cells: insect cells (membranes)
Procedure: as §5

[15] = Figure S4, anaerobic stopped-flow, 30 C

For C#CCN(C)Cc1ccccc1 [Pargyline], the “MAO-A Enhancement” value (MAO-A [1]) was 48, the “MAO-B Enhancement” value (human MAO-B [2]; ratio of IC50 without/with 30 min preincubation) was 292 and the “k, 410 nm (adduct)” value (purified human MAO-A; [15]) was 0.0043 s⁻¹. For the same compound, the “k, 485 nm (reduction)” value (purified human MAO-A; [15]) was 0.0047 s⁻¹, the “rate of adduct formation (absorbance increase at 410 nm)” value (purified human MAO-A; anaerobic) was 0.26 ± 0.03 min⁻¹ and the “rate of anaerobic reduction of FAD (absorbance decrease at 495 nm)” value (purified human MAO-A; anaerobic) was 0.28 ± 0.02 min⁻¹.
In the case of N[C@H]1C[C@@H]1c1ccccc1 [1S,2R-trans-2-phenylcyclopropylamine], the “times more potent in vitro than the other enantiomer” value (MAO) is given as 60 times.
For NNCCc1ccccc1 [Phenelzine], the patient response rates [3] is given as “over 50%”.
In the case of N[C@H]1C[C@@H]1c1ccccc1 (racemic) [Tranylcypromine], the patient response rates [3] is listed as “over 50%”, the “MAO-A Enhancement” value (MAO-A [4]) is listed as 100 ^a and the “MAO-B Enhancement” value (human MAO-B [5]) is listed as 54.7 ^a.
In the case of C#CCN(C)Cc1ccco1 [F2MPA, N-(furan-2-ylmethyl)-N-methylprop-2-yn-1-amine], the partition ratio (MAO-A [6]) is listed as over 1000, the MAO-B kinact (human MAO-B [7]) is listed as 0.61 min⁻¹ and the “MAO-B kinact/KI” value (human MAO-B [7]) is listed as 0.0045 min^−1μM^−1. The Ki (human MAO-B [7]; inactivation constant) was 135000 nM, the MAO-A kinact (MAO-A [8]) was 0.087 min⁻¹ and the “MAO-A kinact/KI” value (MAO-A [8]) was 0.0005 min^−1μM^−1. The Ki (MAO-A [8]; inactivation constant) was 187000 nM, the activity retained (MAO-A [9]; MAO-A incubated anaerobically […] with 0.5 mM) was 7% and the “activity restored by overnight aerobic dialysis” value (MAO-A [9]; after […] anaerobic incubation with 0.5 mM) was 88%. For the same compound, the “time for completion of biphasic decrease in absorbance at 495 nm” value (purified human MAO-A; F2MPA 2 mM, MAO-A […] μM, anaerobic) was “more than 21 h” and the “rate of anaerobic reduction of FAD (absorbance decrease at 495 nm)” value (purified human MAO-A; anaerobic) was 0.0034 ± 0.0009 min⁻¹.
In the case of C#CCN(C)Cc1cc2cc(OCCCC3CCN(Cc4ccccc4)CC3)ccc2n1C [ASS234, N-[[5-[3-(1-benzylpiperidin-4-yl)propoxy]-1-methylindol-2-yl]methyl]-N-methylprop-2-yn-1-amine], the Ki (MAO-A [10]) is given as 53 ± 14 nM, the “MAO-A Enhancement” value (MAO-A [1]) is given as 122 and the IC50 (MAO-A [11]) is given as 33 ± 3 nM. The Ki (human MAO-B [12]) was 1740 nM, the IC50 (human MAO-B [2]; read-out: MAO-B IC50 after 30 min preincubation, human MAO in insect cell membranes, saturating substrate) was 120 ± 20 nM and the IC50 (human MAO-B [13]) was 3200 ± 410 nM. The “rate of anaerobic reduction of FAD (absorbance decrease at 495 nm)” value (purified human MAO-A; anaerobic) was 3.36 min⁻¹ and the Ki (MAO-A [14]) was 45 nM.
For C#CCN(C)[C@H](C)Cc1ccccc1 [Selegiline, (2R)-N-methyl-1-phenyl-N-prop-2-ynylpropan-2-amine], the “MAO-A Enhancement” value (MAO-A [1]) was 357, the “rate of adduct formation (absorbance increase at 410 nm)” value (purified human MAO-A; anaerobic) was 0.016 ± 0.003 min⁻¹ and the “rate of anaerobic reduction of FAD (absorbance decrease at 495 nm)” value (purified human MAO-A; anaerobic) was 0.019 ± 0.002 min⁻¹.
